According to ChEMBL document CHEMBL3880383, “2-oxo-1-pyrrolidine derivative and its pharmaceutical uses” (2004):

Legend:
[1] = biological target: Synaptic vesicle glycoprotein 2A (Rattus norvegicus, UniProt Q02563); assay: Displacement of [3H]-2-[4-(3-azidophenyl)-2-oxo-1-pyrrolidinyl]butanamide from SV2A levetiracetam binding site in Sprague-Dawley rat cerebral cortex membranes after 120 mins by liquid scintillation counting method; parameters: species or system Membrane
Mus musculus = assay: Anticonvulsant activity in ip dosed sound susceptible DBA mouse model assessed as protection against audiogenic seizure-induced wild running, clonic and tonic convulsion administered 60 mins prior to induction of audiogenic seizures measured for 30 secs; assay type: functional
[2] = Mus musculus, DBA, ip, read-out: ED50

Chain of Synaptic vesicle glycoprotein 2A (Q02563 whole entry): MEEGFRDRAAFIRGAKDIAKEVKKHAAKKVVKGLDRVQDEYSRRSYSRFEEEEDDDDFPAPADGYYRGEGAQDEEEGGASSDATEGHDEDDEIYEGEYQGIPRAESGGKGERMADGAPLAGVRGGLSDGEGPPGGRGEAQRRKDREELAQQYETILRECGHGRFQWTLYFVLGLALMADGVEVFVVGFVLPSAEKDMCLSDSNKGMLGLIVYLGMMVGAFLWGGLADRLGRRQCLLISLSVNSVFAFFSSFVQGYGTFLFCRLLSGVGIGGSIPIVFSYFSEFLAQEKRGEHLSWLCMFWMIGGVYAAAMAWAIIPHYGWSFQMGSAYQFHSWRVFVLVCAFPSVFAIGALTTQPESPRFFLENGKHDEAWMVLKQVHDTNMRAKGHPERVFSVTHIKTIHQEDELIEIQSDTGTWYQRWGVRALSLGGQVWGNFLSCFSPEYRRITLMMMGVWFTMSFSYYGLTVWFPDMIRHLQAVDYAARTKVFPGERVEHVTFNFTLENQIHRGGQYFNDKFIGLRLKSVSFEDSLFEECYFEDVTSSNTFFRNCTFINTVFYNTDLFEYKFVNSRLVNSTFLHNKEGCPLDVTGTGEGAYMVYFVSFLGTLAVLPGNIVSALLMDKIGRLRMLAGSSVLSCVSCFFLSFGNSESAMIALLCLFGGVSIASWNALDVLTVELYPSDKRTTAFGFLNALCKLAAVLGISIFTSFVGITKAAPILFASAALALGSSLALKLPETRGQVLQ

Compound | Ki [1] [nM] | ED50 (Mus musculus; [2]) [µmol/kg] | ED50 (Mus musculus) [µmol/kg]
CC[C@@H](C(N)=O)N1CC(CC2CC2)CC1=O (stereo partly drawn) | ≤ 1000 | 100 | –
CCCC1(C)CC(=O)N([C@@H](CC)C(N)=O)C1 (stereo partly drawn) | ≤ 1000 | 100 | –
CCC[C@H]1CC(=O)N([C@@H](CC)C(N)=O)C1 | ≤ 1000 | 100 | –
CCCCCC1CC(=O)N(C(CC)C(N)=O)C1 (stereo not drawn) | ≤ 1000 | – | –
CCC1CC(=O)N([C@@H](CC)C(N)=O)C1 (stereo partly drawn) | ≤ 1000 | 100 | –
CC[C@@H](C(N)=O)N1C[C@H](CI)CC1=O | ≤ 1000 | 100 | –
CC[C@@H](C(N)=O)N1CC(CC(C)(C)C)CC1=O (stereo partly drawn) | ≤ 1000 | – | –
CCCCC1CC(=O)N(C(CC)C(N)=O)C1 (stereo not drawn) | ≤ 1000 | 100 | –
CCC(C(N)=O)N1CC(C=C(F)F)CC1=O (stereo not drawn) | ≤ 1000 | 100 | –
CC[C@@H](C(N)=O)N1CC(CN=C=S)CC1=O (stereo partly drawn) | ≤ 1000 | – | –
CC[C@@H](C(N)=O)N1CC(CCc2ccccc2)CC1=O (stereo partly drawn) | ≤ 1000 | – | –
CCC(C(N)=O)N1CC(c2ccco2)CC1=O (stereo not drawn) | ≤ 1000 | 100 | –
CC[C@@H](C(N)=O)N1CC(Cn2cnnn2)CC1=O (stereo partly drawn) | ≤ 1000 | 100 | –
CCC(C(N)=O)N1CC(c2cccnc2)CC1=O (stereo not drawn) | ≤ 1000 | 100 | –
CC[C@@H](C(N)=O)N1CC(n2cccc2)CC1=O (stereo partly drawn) | ≤ 1000 | 100 | –
CC[C@@H](C(N)=O)N1CC(c2cccc(N=[N+]=[N-])c2)CC1=O (stereo partly drawn) | ≤ 1000 | 100 | –
CCC(C(N)=O)N1CC(C=C(C)C)CC1=O (stereo not drawn) | ≤ 1000 | 100 | –
CC[C@@H](C(N)=O)N1CC(n2cccc2Br)CC1=O (stereo partly drawn) | ≤ 1000 | 100 | –
CC[C@@H](C(N)=O)N1CC(c2ccccc2)CC1=O (stereo partly drawn) | ≤ 1000 | 100 | –
CC[C@@H](C(N)=O)N1CC(CC(C)=O)CC1=O (stereo partly drawn) | ≤ 1000 | 100 | –
CC[C@@H](C(N)=O)N1C[C@@H](C=C(F)F)CC1=O | ≤ 1000 | 100 | –

Compound | Ki [1] [nM] | ED50 (Mus musculus; [2]) [µmol/kg] | ED50 (Mus musculus) [µmol/kg]
C=CC1CC(=O)N(C(CC)C(N)=O)C1 (stereo not drawn) | ≤ 1000 | 100 | –
CCC(C(N)=O)N1CC(CI)CC1=O (stereo not drawn) | ≤ 1000 | – | –
CC[C@@H](C(N)=O)N1CC(C#CBr)CC1=O (stereo partly drawn) | ≤ 1000 | 100 | –
CCC(C(N)=O)N1C[C@H](CC(C)(F)F)CC1=O (stereo partly drawn) | ≤ 1000 | 100 | –
CC[C@@H](C(N)=O)N1CC(c2ccsc2)CC1=O (stereo partly drawn) | ≤ 1000 | 100 | –
CCC(C(N)=O)N1CC(CC2CC2)CC1=O (stereo not drawn) | ≤ 1000 | 100 | –
CCC(C(N)=O)N1CC(CC(C)C)CC1=O (stereo not drawn) | ≤ 1000 | 100 | –
CCC(C(N)=O)N1CC(c2ccc(Cl)cc2)CC1=O (stereo not drawn) | ≤ 1000 | – | –
CCC[C@@H](C(N)=O)N1C[C@H](CI)CC1=O | ≤ 1000 | 100 | –
CC[C@@H](C(N)=O)N1CC(CCC(F)(F)F)CC1=O (stereo partly drawn) | ≤ 1000 | 100 | –
CCCC1CC(=O)N(C(Cc2cscn2)C(N)=O)C1 (stereo not drawn) | ≤ 1000 | – | –
CCC(C(N)=O)N1CC(c2ccccc2F)CC1=O (stereo not drawn) | ≤ 1000 | 100 | –
CCC(C(N)=O)N1CC(c2ccc(Cl)c(Cl)c2)CC1=O (stereo not drawn) | ≤ 1000 | 100 | –
CCCC1CC(=O)N(C(CC)C(N)=O)C1 (stereo not drawn) | ≤ 1000 | 100 | –
C=C[C@@H]1CC(=O)N([C@@H](CC)C(N)=O)C1 | ≤ 1000 | 100 | –
CCC(C(N)=O)N1CC(c2cc(C(F)(F)F)cc(C(F)(F)F)c2)CC1=O (stereo not drawn) | ≤ 1000 | – | –
CCC(C(N)=O)N1CC(c2ccccc2Br)CC1=O (stereo not drawn) | ≤ 1000 | 100 | –
C#CC1CC(=O)N(C(CC)C(N)=O)C1 (stereo not drawn) | ≤ 1000 | 100 | –
C[C@@H](C(N)=O)N1C[C@H](CI)CC1=O | ≤ 1000 | 100 | –
CCC(C(N)=O)N1CC(c2cccc(C)c2)CC1=O (stereo not drawn) | ≤ 1000 | 100 | –
CCCC1CC(=O)N(C(C)C(N)=O)C1 (stereo not drawn) | ≤ 1000 | – | –

Compound | Ki [1] [nM] | ED50 (Mus musculus; [2]) [µmol/kg] | ED50 (Mus musculus) [µmol/kg]
CCC(C(N)=O)N1CC(CS(=O)(=O)c2ccccc2)CC1=O (stereo not drawn) | ≤ 1000 | – | –
CC[C@@H](C(N)=O)N1C[C@@H](C=C(Br)Br)CC1=O | ≤ 1000 | 100 | –
CC[C@@H](C(N)=O)N1CC(CCl)CC1=O (stereo partly drawn) | ≤ 1000 | 100 | –
CCC(C(N)=O)N1CC(c2ccc(Cl)cc2Cl)CC1=O (stereo not drawn) | ≤ 1000 | 100 | –
CC[C@@H](C(N)=O)N1CC(COS(=O)(=O)c2ccc(C)cc2)CC1=O (stereo partly drawn) | ≤ 1000 | 100 | –
CC[C@@H](C(N)=O)N1CC(CC(C)I)CC1=O (stereo partly drawn) | ≤ 1000 | 100 | –
CC[C@@H](C(N)=O)N1CC(c2cc(Br)cc(Br)c2)CC1=O (stereo partly drawn) | ≤ 1000 | 100 | –
CC[C@@H](C(N)=O)N1CC(CI)CC1=O (stereo partly drawn) | ≤ 1000 | 100 | –
CC[C@@H](C(N)=O)N1CC(CBr)CC1=O (stereo partly drawn) | ≤ 1000 | 100 | –
C=CCC1CC(=O)N([C@@H](CC)C(N)=O)C1 (stereo partly drawn) | ≤ 1000 | 100 | –
CC[C@@H](C(N)=O)N1CC(CCCc2ccccc2)CC1=O (stereo partly drawn) | ≤ 1000 | 100 | –
CCC(C(N)=O)N1CC(C#CBr)CC1=O (stereo not drawn) | ≤ 1000 | 100 | –
CC[C@@H](C(N)=O)N1CC(c2ccc(N=[N+]=[N-])cc2)CC1=O (stereo partly drawn) | ≤ 1000 | 100 | –
CC[C@@H](C(N)=O)N1CC(c2cccc(OC)c2)CC1=O (stereo partly drawn) | ≤ 1000 | – | –
CC[C@@H](C(N)=O)N1CC(c2ccccc2OC)CC1=O (stereo partly drawn) | ≤ 1000 | – | –
CCC(C(N)=O)N1CC(C=C(Br)Br)CC1=O (stereo not drawn) | ≤ 1000 | 100 | –
CCC(C(N)=O)N1CC(c2cccc(Cl)c2)CC1=O (stereo not drawn) | ≤ 1000 | 100 | –
CC[C@@H](C(N)=O)N1CC(c2ccc(-c3ccccc3)cc2)CC1=O (stereo partly drawn) | ≤ 1000 | – | –
CC[C@@H](C(N)=O)N1CC(CO[N+](=O)[O-])CC1=O (stereo partly drawn) | ≤ 1000 | 100 | –
CCC(C(N)=O)N1CC(c2ccccc2C(F)(F)F)CC1=O (stereo not drawn) | ≤ 1000 | – | –
CC[C@@H](C(N)=O)N1CC(CSC)CC1=O (stereo partly drawn) | ≤ 1000 | 100 | –

Compound | Ki [1] [nM] | ED50 (Mus musculus; [2]) [µmol/kg] | ED50 (Mus musculus) [µmol/kg]
CC[C@H](C(N)=O)N1CC(C=C(Cl)Cl)CC1=O (stereo partly drawn) | ≤ 1000 | 100 | –
CCC(C(N)=O)N1CC(/C=C\F)CC1=O (stereo not drawn) | ≤ 1000 | 100 | –
C=CCC(C(N)=O)N1CC(CCC)CC1=O (stereo not drawn) | ≤ 1000 | – | –
CCCC(CN[C@@H](CC)C(N)=O)CC(=O)OC(C)C (stereo partly drawn) | – | 100 | –
CCC(C(N)=O)N1CC(c2nccs2)CC1=O (stereo not drawn) | ≤ 1000 | 100 | –
CCCCOC(=O)CC(CCC)CN[C@@H](CC)C(N)=O (stereo partly drawn) | – | 100 | –
CCCC1CC(=O)N(C(CC2CC2)C(N)=O)C1 (stereo not drawn) | ≤ 1000 | – | –
CC[C@@H](C(=O)NC)N1C[C@H](CI)CC1=O | ≤ 1000 | 100 | –
CCCC1CC(=O)N(C(CCC)C(N)=O)C1 (stereo not drawn) | ≤ 1000 | – | –
CCCC(CN[C@@H](CC)C(N)=O)CC(=O)OCC (stereo partly drawn) | – | 100 | –
C=C[C@H]1CC(=O)N([C@@H](CC)C(N)=O)C1 | ≤ 1000 | 100 | –
CCCC(CN[C@@H](CC)C(N)=O)CC(=O)OCCC12CC3CC(CC(C3)C1)C2 (stereo partly drawn) | – | 100 | –
CC[C@@H](C(N)=O)N1CC(c2cccc(Br)c2)CC1=O (stereo partly drawn) | ≤ 1000 | 100 | –
CCC(C(N)=O)N1CC(CC(F)F)CC1=O (stereo not drawn) | ≤ 1000 | – | –
CC[C@@H](C(N)=O)N1C[C@H](C=C(Br)Br)CC1=O | ≤ 1000 | 100 | –
CC[C@@H](C(N)=O)N1C[C@H](CN=[N+]=[N-])CC1=O | ≤ 1000 | 100 | –
CC[C@@H](C(N)=O)N1CC(c2cccs2)CC1=O (single isomer, unassigned; diastereomer 1) | – | 100 | –
CC[C@@H](C(N)=O)N1CC(c2cccs2)CC1=O (single isomer, unassigned; diastereomer 2) | ≤ 1000 | – | 100
CCC[C@@H]1CC(=O)N([C@@H](CC)C(N)=O)C1 [BRIVARACETAM] | ≤ 1000 | 100 | –
CC[C@@H](C(N)=O)N1C[C@H](C=C(F)F)CC1=O [SELETRACETAM] | ≤ 1000 | 100 | –
